Key:
5-HT2AR = 5-HT2AR (Homo sapiens, UniProt P28223); assay: 5-HT2A IP-1 formation (HEK-h5HT2A cells); details: for % inhib., 5-HT2A IP-1 formation: antagonist mode, normalized to the inhibition by 10 μM ketanserin; for functional behavior at 5-HT2AR: in words
Method: HEK-h5HT2A or HEK-h5HT2C cells are used as the tissue source. The day before the experiment, cells are plated in 24-well plates at a density of 400,000 cells per well using DMEM supplemented with charcoal-stripped FetalClone. Drugs are made up in stimulation buffer supplied in the kit. Medium is removed from the well, test compounds or serotonin or antagonist or buffer is added, and the cells are incubated for 1 h. The cells are lysed for 30 min, and 50 μL of cell lysate is added to the IP-1 plates. After the addition of appropriate antibodies, the plates are incubated for 3 h, washed six times, incubated with the substrate for 20 min, and, after termination of the reaction, the plate is read on a plate reader at 450 nm with a correction at 620 nm.

D3R = D3R (Homo sapiens, UniProt P35462); assay: Radioligand competition binding at human D3R ([3H]N-methylspiperone, HEK293 membranes); design: expressed in transfected cells; host or cells: HEK293; details: for Ki: [3H]N-methylspiperone, HEK 293 cells expressing hD3R, read-out: Ki ± SEM, D3R; for D2/D3: ratio of Ki values D2R/D3R; for D4/D3: ratio of Ki values D4R/D3R
D3R, sequence (P35462 whole entry): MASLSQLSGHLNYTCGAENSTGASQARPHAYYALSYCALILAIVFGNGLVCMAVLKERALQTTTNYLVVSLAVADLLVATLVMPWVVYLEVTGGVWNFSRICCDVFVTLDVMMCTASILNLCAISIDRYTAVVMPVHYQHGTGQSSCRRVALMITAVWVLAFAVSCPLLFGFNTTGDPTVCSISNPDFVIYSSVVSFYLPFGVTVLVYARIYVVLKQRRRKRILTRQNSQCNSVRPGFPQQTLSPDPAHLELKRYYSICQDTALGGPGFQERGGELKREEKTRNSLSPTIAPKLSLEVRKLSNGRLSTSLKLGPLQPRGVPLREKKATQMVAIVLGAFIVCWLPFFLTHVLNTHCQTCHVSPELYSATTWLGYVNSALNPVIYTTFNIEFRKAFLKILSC
Method: The novel hybrid derivatives 3–11 were tested at hD2R, hD3R, or hD4R stably expressed in HEK293 cells by competition binding assays, using [^3H]N-methylspiperone as the radioligand, to evaluate their D2-like affinity and subtype selectivity, following the previously reported procedures.[41],[45],[46]
Binding at dopamine D2-like receptors was determined using previously described methods.[41],[45],[46] Membranes were prepared from HEK293 cells stably expressing human D2, D3, or D4, grown in a 50:50 mix of Dulbecco’s minimal essential medium (DMEM) and Ham’s F12 culture media, supplemented with 20 mM HEPES, 2 mM L-glutamine, 0.1 mM nonessential amino acids, 1× antibiotic/antimycotic, 10% heat-inactivated fetal bovine serum, and 200 μg/mL hygromycin (Life Technologies, Grand Island, NY) and kept in an incubator at 37 °C and 5% CO2. Upon reaching 80–90% confluency, the cells were harvested using premixed Earle’s Balanced Salt Solution (EBSS) with 5 μM EDTA (Life Technologies) and centrifuged at 3000 rpm for 10 min at 21 °C. The supernatant was removed, and the pellet was resuspended in 10 mL hypotonic lysis buffer (5 mM MgCl2, 5 mM Tris, pH 7.4 at 4 °C) and centrifuged at 20,000 rpm for 30 min at 4 °C. The pellet was then resuspended in fresh EBSS buffer made from 8.7 g/L Earle’s Balanced Salts without phenol red (US Biological, Salem, MA), 2.2 g/L sodium bicarbonate, pH to 7.4. A Bradford protein assay (Bio-Rad, Hercules, CA) was used to determine the protein concentration, and membranes were diluted to 500 μg/mL and stored at −80 °C for later use. Radioligand competition binding experiments were conducted using thawed membranes. Test compounds were freshly dissolved in 30% DMSO and 70% H2O to a stock concentration of 100 μM. To assist the solubilization of free-base compounds, 10 μL of glacial acetic acid was added along with DMSO. Each test compound was then diluted into 13 half-log serial dilutions using 30% DMSO vehicle; the final test concentrations ranged from 10 μM to 10 pM. The previously frozen membranes were diluted in fresh EBSS to a 100 μg/mL (for D2 or D3) or 200 μg/mL (D4) stock for binding. Radioligand competition experiments were conducted in glass tubes containing 300 μL of fresh EBSS buffer, 50 μL of diluted test compound, 100 μL of membranes (10 μg of total protein for D2 or D3 and 20 μg of total protein for D4), and 50 μL of [^3H]N-methylspiperone (0.4 nM final concentration; PerkinElmer). Nonspecific binding was determined using 10 μM butaclamol (Sigma-Aldrich, St. Louis, MO), and total binding was determined with the 30% DMSO vehicle. All compound dilutions were tested in triplicate and the reaction was incubated for 1 h at room temperature. The reaction was terminated by filtration through Whatman GF/B filters, presoaked for 1 h in 0.5% polyethylenimine, using a Brandel R48 filtering manifold (Brandel Instruments, Gaithersburg, MD). The filters were washed three times with 3 mL of ice-cold EBSS buffer and transferred to scintillation vials. CytoScint liquid scintillation cocktail (3 mL, MP Biomedicals, Solon, OH) was added, and vials were counted using a PerkinElmer Tri-Carb 2910 TR liquid scintillation counter (Waltham, MA).

human 5-HT1AR = target: T1, human 5-HT1AR (Homo sapiens, UniProt P08908); assay: 5-HT1A [35S]GTPγS binding assay (HeLa cell membranes); format: biochemical; details: for EC50 / % stimul., 5-HT1A [35S]GTPγS binding: agonist mode; for % stimul., 5-HT1A [35S]GTPγS binding: standard agonist serotonin; for functional behavior at 5-HT1AR: in words
T1 construct: expressed in transfected cells; host or cells: HeLa
T1 sequence (P08908 1-422): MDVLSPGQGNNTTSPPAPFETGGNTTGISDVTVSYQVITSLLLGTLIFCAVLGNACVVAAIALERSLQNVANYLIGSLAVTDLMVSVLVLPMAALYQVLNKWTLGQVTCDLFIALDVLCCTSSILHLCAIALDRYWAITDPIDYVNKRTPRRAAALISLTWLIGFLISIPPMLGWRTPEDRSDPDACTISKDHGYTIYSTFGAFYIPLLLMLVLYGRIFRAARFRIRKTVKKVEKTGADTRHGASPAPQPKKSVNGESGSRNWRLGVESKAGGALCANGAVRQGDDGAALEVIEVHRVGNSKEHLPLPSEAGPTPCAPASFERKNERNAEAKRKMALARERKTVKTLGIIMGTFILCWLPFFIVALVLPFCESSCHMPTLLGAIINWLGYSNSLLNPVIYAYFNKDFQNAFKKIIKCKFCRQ
Method: The effects of the various compounds tested on [^35S]GTPγS binding in HeLa cells expressing the recombinant human 5-HT1AR were evaluated according to the method of Stanton and Beer with minor modifications. The stimulation experiments are as follows: Cell membranes (50–70 μg of protein) were resuspended in buffer containing 20 mM HEPES, 3 mM MgSO4, and 120 mM NaCl (pH 7.4). […] The samples were transferred to ice, [^35S]GTPγS (200 pM) was added, and the samples were incubated for further 30 min at 30 °C. The preincubation with both agonist and antagonist, before initiating the [^35S]GTPγS binding, ensures that agonist and antagonist are at equilibrium. Nonspecific binding was determined in the presence of […]. Incubation was stopped by the addition of ice-cold HEPES buffer and rapid filtration on Unifilter B filters (PerkinElmer) using a Filtermate cell harvester (Packard). The filters were washed with ice-cold Hepes buffer, and the radioactivity retained on the filters was determined by a TopCount, PerkinElmer liquid scintillation counter at 90% efficiency.

5-HT2AR, sequence (P28223 whole entry): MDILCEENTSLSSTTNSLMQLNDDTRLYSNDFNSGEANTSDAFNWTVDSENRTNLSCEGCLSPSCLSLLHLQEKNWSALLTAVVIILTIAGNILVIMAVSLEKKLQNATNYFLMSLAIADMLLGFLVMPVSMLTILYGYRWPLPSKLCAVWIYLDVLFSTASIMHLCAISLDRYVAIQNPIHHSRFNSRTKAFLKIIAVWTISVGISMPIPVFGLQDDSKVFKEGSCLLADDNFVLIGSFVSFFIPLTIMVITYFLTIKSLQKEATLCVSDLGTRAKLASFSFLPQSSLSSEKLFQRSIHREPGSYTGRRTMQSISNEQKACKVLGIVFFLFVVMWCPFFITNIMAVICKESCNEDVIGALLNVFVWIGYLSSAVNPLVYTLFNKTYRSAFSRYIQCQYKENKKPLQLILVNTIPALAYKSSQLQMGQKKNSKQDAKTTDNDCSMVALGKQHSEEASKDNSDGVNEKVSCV

With O=C(NCCCCN1CCN(c2cccc(Cl)c2Cl)CC1)C1COC(c2ccccc2)(c2ccccc2)CO1 (centres unmarked) [compound 6, N-(4-(4-(2,3-Dichlorophenyl)piperazin-1-yl)butyl)-5,5-diphenyl-1,4-dioxane-2-carboxamide] the “% inhib., 5-HT2A IP-1 formation” value (5-HT2AR) was “(88.6) %”, the “functional behavior at 5-HT2AR” value (5-HT2AR) was “efficacious D2R and 5-HT2AR antagonists with high and low potency, respectively” and the Ki (D3R) was 1.58 ± 0.24 nM. For the same compound, the D2/D3 (D3R) was 18, the D4/D3 (D3R) was 35 and the EC50 (human 5-HT1AR) was 23.9 ± 8.8 nM. For the same compound, the “% stimul., 5-HT1A [35S]GTPγS binding” value (human 5-HT1AR) was 90.8% and the “functional behavior at 5-HT1AR” value (human 5-HT1AR) was “efficacious 5-HT1AR and D4R agonists with high potency”.
O=C(NCCCCN1CCN(c2cccc(Cl)c2Cl)CC1)C1COCC(c2ccccc2)(c2ccccc2)O1 (centres unmarked) [compound 3, N-(4-(4-(2,3-Dichlorophenyl)piperazin-1-yl)butyl)-6,6-diphenyl-1,4-dioxane-2-carboxamide] was tested, and the “% inhib., 5-HT2A IP-1 formation” value (5-HT2AR) was “(45.4) %”, the Ki (D3R) was 2.39 ± 0.69 nM and the D2/D3 (D3R) was 143. The D4/D3 (D3R) was 566, the EC50 (human 5-HT1AR) was 232 ± 19 nM and the “% stimul., 5-HT1A [35S]GTPγS binding” value (human 5-HT1AR) was 82.7%. The “functional behavior at 5-HT1AR” value (human 5-HT1AR) was 5-HT1AR full agonist.
In the case of O=C(NCCCCN1CCN(c2cccc(Cl)c2Cl)CC1)C1COc2ccccc2O1 (centres unmarked) [compound 9, N-(4-(4-(2,3-Dichlorophenyl)piperazin-1-yl)butyl)-2,3-dihydrobenzo[b][1,4]dioxine-2-carboxamide], the “% inhib., 5-HT2A IP-1 formation” value (5-HT2AR) is reported as “(86.8) %”, the “functional behavior at 5-HT2AR” value (5-HT2AR) is reported as “efficacious D2R and 5-HT2AR antagonists with high and low potency, respectively” and the Ki (D3R) is reported as 2.16 ± 0.63 nM. It also gave a D2/D3 (D3R) of 22, a D4/D3 (D3R) of 35 and an EC50 (human 5-HT1AR) of 22.7 ± 0.82 nM. The “% stimul., 5-HT1A [35S]GTPγS binding” value (human 5-HT1AR) was 96.3% and the “functional behavior at 5-HT1AR” value (human 5-HT1AR) was “efficacious 5-HT1AR and D4R agonists with high potency”.
